Where two headings read alike, the source gives them in different places.
Molecular target: recombinant human SAE enzyme (Homo sapiens (Human), UniProt Q9UBT2)
Test: SAE HTRF enzyme assay
Type: biochemical
Conditions: for inhibition at 0.111 µM: read-out: Percent Inhibition
Summary of the method: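 First, recombinant human SAE (0.11 nM) transfers Sumo-Flag onto Ubc9-GST using 0.5 μM ATP for 105 min at 24° C. Next, EDTA-containing detection buffer with labelled anti-Flag and anti-GST antibodies is added for 2 h. Finally, FRET is quantified and percent inhibition or IC50 derived.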

[1] = SAE inhibition at compound concentration 0.111 μM
[2] = SAE inhibition, class symbols, legend in nM

Chain of recombinant human SAE enzyme (Q9UBT2 whole entry): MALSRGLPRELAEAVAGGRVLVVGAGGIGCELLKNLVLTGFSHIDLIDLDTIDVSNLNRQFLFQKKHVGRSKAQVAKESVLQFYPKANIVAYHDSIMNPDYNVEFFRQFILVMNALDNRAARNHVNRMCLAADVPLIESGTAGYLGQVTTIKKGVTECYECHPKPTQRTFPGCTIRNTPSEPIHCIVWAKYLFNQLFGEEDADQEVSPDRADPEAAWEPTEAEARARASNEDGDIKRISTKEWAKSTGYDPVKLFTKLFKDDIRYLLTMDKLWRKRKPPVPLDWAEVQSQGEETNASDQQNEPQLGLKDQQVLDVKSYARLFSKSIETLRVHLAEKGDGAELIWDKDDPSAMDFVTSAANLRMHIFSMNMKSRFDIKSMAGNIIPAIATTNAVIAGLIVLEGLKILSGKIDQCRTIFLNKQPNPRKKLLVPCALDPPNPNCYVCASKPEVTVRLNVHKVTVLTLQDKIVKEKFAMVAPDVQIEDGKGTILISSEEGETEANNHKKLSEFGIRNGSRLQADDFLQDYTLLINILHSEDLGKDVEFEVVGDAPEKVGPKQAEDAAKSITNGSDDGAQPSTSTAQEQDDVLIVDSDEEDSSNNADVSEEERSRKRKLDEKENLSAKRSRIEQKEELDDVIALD
Chain of recombinant human SAE enzyme (Q9UBE0 whole entry partner): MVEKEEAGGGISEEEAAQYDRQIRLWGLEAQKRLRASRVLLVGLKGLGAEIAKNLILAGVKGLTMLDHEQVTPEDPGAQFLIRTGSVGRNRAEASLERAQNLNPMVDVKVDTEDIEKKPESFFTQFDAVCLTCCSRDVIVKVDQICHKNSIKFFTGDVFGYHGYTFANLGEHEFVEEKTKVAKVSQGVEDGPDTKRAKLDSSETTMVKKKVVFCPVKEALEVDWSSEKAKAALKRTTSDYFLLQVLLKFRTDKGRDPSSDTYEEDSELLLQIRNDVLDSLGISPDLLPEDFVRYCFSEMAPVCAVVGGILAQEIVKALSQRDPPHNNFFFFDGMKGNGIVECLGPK

| Compound | Percent Inhibition (Concentration 0.111 μM) | IC50 (class symbols A/B/C) | inhibition at 0.111 µM (Concentration 0.111 μM) | also measured |
| --- | --- | --- | --- | --- |
| N[C@H](c1cccc(Cl)c1)c1csc(C(=O)c2cncnc2N[C@@H]2C[C@H](COS(N)(=O)=O)[C@@H](O)C2)c1 (single isomer, unassigned) [I-36b, [(1R,2S,4R)-4-{[5-({4-[(R)-amino(3-chlorophenyl)methyl]-2-thienyl}carbonyl)pyrimidin-4-yl]amino}-2-hydroxycyclopentyl]methyl sulfamate or [(1R,2S,4R)-4-{[5-({4-[(S)-amino(3-chlorophenyl)methyl]-2-thienyl}carbonyl)pyrimidin-4-yl]amino}-2-hydroxycyclopentyl]methyl sulfamate] | 99 | < 10 nM |  |  |
| CO[C@@H](c1cccc(Br)c1)c1csc(C(=O)c2cncnc2N[C@@H]2C[C@H](COS(N)(=O)=O)[C@@H](O)C2)c1 (single isomer, unassigned) [I-73b, [(1R,2S,4R)-4-{[5-({4-[(S)-(3-Bromophenyl)(methoxy)methyl-2-thienyl}carbonyl)pyrimidin-4-yl]amino}-2-hydroxycyclopentyl]methyl sulfamate or [(1R,2S,4R)-4-{[5-(4-[(R)-(3-Bromophenyl)(methoxy)methyl]-2-thienyl)carbonyl)pyrimidin-4-yl]amino}-2-hydroxycyclopentyl]methyl sulfamate] | 98 | < 10 nM |  |  |
| NS(=O)(=O)OC[C@H]1C[C@@H](Nc2ncncc2C(=O)c2cc(COc3ccccc3C(F)(F)F)cs2)C[C@@H]1O [I-188, [(1R,2S,4R)-2-hydroxy-4-({5-[(4-{[2-(trifluoromethyl)phenoxy]methyl}-2-thienyl)carbonyl]pyrimidin-4-yl}amino)cyclopentyl]methyl sulfamate] |  | 10 to 100 nM | 79% |  |
| Cc1cccc(Cc2cc(C(=O)c3cncnc3N[C@@H]3C[C@H](COS(N)(=O)=O)[C@@H](O)[C@@H]3F)oc2C)c1 [I-65, [(1R,2R,3R,4R)-3-fluoro-2-hydroxy-4-({5-[5-methyl-4-(3-methylbenzyl)-2-furoyl]pyrimidin-4-yl}amino)cyclopentyl]methyl sulfamate] |  | < 10 nM | 99% |  |
| C[C@](N)(c1cccc(Br)c1)c1csc(C(=O)c2cncnc2N[C@@H]2C[C@H](COS(N)(=O)=O)[C@@H](O)[C@H]2O)c1 (single isomer, unassigned) [I-27b, [(1R,2R,3S,4R)-4-{[5-({4-[(1S)-1-amino-1-(3-bromophenyl)ethyl]-2-thienyl}carbonyl)pyrimidin-4-yl]amino}-2,3-dihydroxycyclopentyl]methyl sulfamate or [(1R,2R,3S,4R)-4-{[5-({4-[(1R)-1-amino-1-(3-bromophenyl)ethyl]-2-thienyl}carbonyl)pyrimidin-4-yl]amino}-2,3-dihydroxycyclopentyl]methyl sulfamate] | 101 | < 10 nM |  |  |
| NS(=O)(=O)OC[C@H]1C[C@@H](Nc2ncncc2C(=O)c2ccc(S(=O)(=O)c3ccccc3)o2)C[C@@H]1O [I-239, [(1R,2S,4R)-2-Hydroxy-4-(5-[5-(phenylsulfonyl)-2-furoyl]pyrimidin-4-yl}amino)cyclopentyl]methyl sulfamate] | 14 | 100 to 1000 nM |  |  |
| NS(=O)(=O)OC[C@H]1C[C@@H](Nc2ncncc2C(=O)c2cc([C@@]3(C4=CCCCC4)CCCO3)cs2)C[C@@H]1O (mixture of isomers) [I-116, [(1R,2S,4R)-4-{[5-({4-[(2S)-2-(cyclohex-1-en-1-yl)tetrahydrofuran-2-yl]-2-thienyl}carbonyl)pyrimidin-4-yl]amino}-2-hydroxycyclopentyl]methyl sulfamate and [(1R,2S,4R)-4-{[5-({4-[(2R)-2-(cyclohex-1-en-1-yl)tetrahydrofuran-2-yl]-2-thienyl}carbonyl)pyrimidin-4-yl]amino}-2-hydroxycyclopentyl]methyl sulfamate] | 96 | < 10 nM |  |  |
| Cc1sc(C(=O)c2cncnc2N[C@@H]2C[C@H](COS(N)(=O)=O)[C@@H](O)C2)cc1-c1nccc2ccc(Cl)cc12 [I-358, [(1R,2S,4R)-4-[[5-[4-(7-chloro-1-isoquinolyl)-5-methyl-thiophene-2-carbonyl]pyrimidin-4-yl]amino]-2-hydroxy-cyclopentyl]methyl sulfamate] |  |  |  | inhibition at 0.111 µM [1]: 96%; IC50 [2]: < 10 nM |
| COc1ccccc1[C@@H](O)c1cc(C(=O)c2cncnc2N[C@@H]2C[C@H](COS(N)(=O)=O)[C@@H](O)C2)sc1Cl (mixture of isomers) [I-85, [(1R,2S,4R)-4-{[5-({5-chloro-4-[(R)-hydroxy(2-methoxyphenyl)methyl]-2-thienyl}carbonyl)pyrimidin-4-yl]amino}-2-hydroxycyclopentyl]methyl sulfamate and [(1R,2S,4R)-4-{[5-({5-chloro-4-[(S)-hydroxy(2-methoxyphenyl)methyl]-2-thienyl}carbonyl)pyrimidin-4-yl]amino}-2-hydroxycyclopentyl]methyl sulfamate] | 97 | < 10 nM |  |  |
| NS(=O)(=O)OC[C@H]1C[C@@H](Nc2ncncc2C(=O)c2cc(Cl)c([C@H](O)c3cccc(Cl)c3)s2)C[C@@H]1O (single isomer, unassigned) [I-151b, [(1R,2S,4R)-4-{[5-({4-chloro-5-[(R)-(3-chlorophenyl)(hydroxy)methyl]-2-thienyl}carbonyl)pyrimidin-4-yl]amino}-2-hydroxycyclopentyl]methyl sulfamate or [(1R,2S,4R)-4-{[5-({4-chloro-5-[(S)-(3-chlorophenyl)(hydroxy)methyl]-2-thienyl}carbonyl)pyrimidin-4-yl]amino}-2-hydroxycyclopentyl]methyl sulfamate] | 93 | < 10 nM |  |  |
| Cc1sc(C(=O)c2cncnc2N[C@@H]2C[C@H](COS(N)(=O)=O)[C@@H](O)C2)cc1[C@@H]1OCCc2ccc(C(F)(F)F)nc21.Cc1sc(C(=O)c2cncnc2N[C@@H]2C[C@H](COS(N)(=O)=O)[C@@H](O)C2)cc1[C@H]1OCCc2ccc(C(F)(F)F)nc21 (mixture of isomers) [I-297, [(1R,2S,4R)-2-hydroxy-4-{[5-({5-methyl-4-[(8S)-2-(trifluoromethyl)-5,8-dihydro-6H-pyrano[3,4-b]pyridin-8-yl]-2-thienyl}carbonyl)pyrimidin-4-yl]amino}cyclopentyl]methyl sulfamate and [(1R,2S,4R)-2-hydroxy-4-{[5-({5-methyl-4-[(8R)-2-(trifluoromethyl)-5,8-dihydro-6H-pyrano[3,4-b]pyridin-8-yl]-2-thienyl}carbonyl)pyrimidin-4-yl]amino}cyclopentyl]methyl sulfamate] |  |  |  | Percent Inhibition [1]: 96%; IC50 [2]: < 10 nM |
| CC(C)(O)c1ccc(C(=O)c2cncnc2N[C@@H]2C[C@H](COS(N)(=O)=O)[C@@H](O)C2)s1 [I-235, {(1R,2S,4R)-2-hydroxy-4-[(5-{[5-(2-hydroxypropan-2-yl)-2-thienyl]carbonyl}pyrimidin-4-yl)amino]cyclopentyl}methyl sulfamate] |  | 100 to 1000 nM | 22% |  |
| NS(=O)(=O)OC[C@H]1C[C@@H](Nc2ncncc2C(=O)c2cc(CNCc3ccccc3)cs2)C[C@@H]1O [I-222, [(1R,2S,4R)-4-{[5-({4-(Benzylamino)methyl]-2-thienyl)carbonyl)pyrimidin-4-yl]amino}-2-hydroxycyclopentyl]methyl sulfamate] | 31 | 100 to 1000 nM |  |  |
| CC(O)(c1cccc(Cl)c1)c1coc(C(=O)c2cncnc2NC2CC(O)C(COS(N)(=O)=O)C2)c1 (mixture of isomers) [I-30, {(1R,2S,4R)-4-[(5-{4-[(1S)-1-(3-chlorophenyl)-1-hydroxyethyl]-2-furoyl}pyrimidin-4-yl)amino]-2-hydroxycyclopentyl}methyl sulfamate and {(1R,2S,4R)-4-[(5-{4-[(1R)-1-(3-chlorophenyl)-1-hydroxyethyl]-2-furoyl}pyrimidin-4-yl)amino]-2-hydroxycyclopentyl}methyl sulfamate] | 98 | < 10 nM |  |  |
| NS(=O)(=O)OC[C@H]1C[C@@H](Nc2ncncc2C(=O)c2cc(Cc3cccc(OC(F)F)c3)cs2)C[C@@H]1O [I-113, [(1R,2S,4R)-4-{[5-({4-[3-(difluoromethoxy)benzyl]-2-thienyl}carbonyl)pyrimidin-4-yl]amino}-2-hydroxycyclopentyl]methyl sulfamate] |  | < 10 nM | 97% |  |
| NS(=O)(=O)OC[C@H]1C[C@@H](Nc2ncncc2C(=O)c2cc(Cc3cccc(Cl)c3)c(F)s2)C[C@@H]1O [I-89, {(1R,2S,4R)-4-[(5-{[4-(3-chlorobenzyl)-5-fluoro-2-thienyl]carbonyl}pyrimidin-4-yl)amino]-2-hydroxycyclopentyl}methyl sulfamate] |  | < 10 nM | 98% |  |
| NS(=O)(=O)OC[C@H]1C[C@@H](Nc2ncncc2C(=O)c2cc([C@@H]3NCCc4ccc(Cl)cc43)c(Cl)o2)C[C@@H]1O (single isomer, unassigned) [I-299a, {(1R,2S,4R)-4-[(5-{5-chloro-4-[(1R)-7-chloro-1,2,3,4-tetrahydroisoquinolin-1-yl]-2-furoyl}pyrimidin-4-yl)amino]-2-hydroxycyclopentyl}methyl sulfamate or {(1R,2S,4R)-4-[(5-{5-chloro-4-[(1S)-7-chloro-1,2,3,4-tetrahydroisoquinolin-1-yl]-2-furoyl}pyrimidin-4-yl)amino]-2-hydroxycyclopentyl}methyl sulfamate] |  |  |  | Percent Inhibition [1]: 101%; IC50 [2]: < 10 nM |
| Cc1sc(C(=O)c2cncnc2N[C@@H]2C[C@H](COS(N)(=O)=O)[C@@H](O)C2)cc1CN1CCc2cc(Cl)ccc21 [I-159, [(1R,2S,4R)-4-{[5-({4-[(5-chloro-2,3-dihydro-1H-indol-1-yl)methyl]-5-methyl-2-thienyl}carbonyl)pyrimidin-4-yl]amino}-2-hydroxycyclopentyl]methyl sulfamate] |  | < 10 nM | 91% |  |
